“Also recorded” adds a separate entry of the source.
How the values were obtained:
[1] = humans; cited from earlier work
NE uptake and 5HT uptake = assay: NE/5HT uptake inhibition selectivity; format: biochemical, rat; details: for NE/5HT IC50 uptake ratio: ratio NE/5HT
Text: (§1) This blockade is shown both in vitro with radioactive labelled compounds to determine the amount of monoamine uptake by synaptosomes from rat brain, and in vivo by a variety of methods. Among the physiologically active monoamines whose uptake is blocked by the compounds of this invention are included particularly serotonin (5HT) and norepinephrine(3,4-dihydroxyphenylethanolamine). […] Tables 1 and 2 which follow set forth the results of some of the in vitro determinations of the blockade of monoamine uptake by the compounds of this invention. In the tables, column 1 gives the R substituent on the 3-phenylpropylamine and columns 2-4, the concentration in micrograms per ml. that blocks the uptake by 50 percent of the monoamines--norepinephrine, serotonin, and dopamine. At the head of each column is given the concentration of the particular monoamine used in the experiment.

[2] = tested on: serotonin uptake (synaptosomes from rat brain); assay: blockade of serotonin (5HT) uptake by synaptosomes from rat brain, in vitro, radioactive labelled compounds; format: biochemical; details: serotonin 0.1 μM
Text: as §1

[3] = tested on: norepinephrine uptake (synaptosomes from rat brain); assay: blockade of norepinephrine uptake by synaptosomes from rat brain, in vitro, radioactive labelled compounds; format: biochemical; details: norepinephrine 0.48 μM
Text: as §1

[4] = tested on: dopamine uptake (synaptosomes from rat brain); assay: blockade of dopamine uptake by synaptosomes from rat brain, in vitro, radioactive labelled compounds; format: biochemical; details: dopamine 0.2 μM
Text: as §1

| SMILES | antidepressant effect [1] | NE/5HT IC50 uptake ratio (NE uptake and 5HT uptake) | Concentration that blocks 50% of serotonin uptake [2] | Concentration that blocks 50% of norepinephrine uptake [3] | Concentration that blocks 50% of dopamine uptake [4] [µg/mL] | uptake inhibition selectivity in words (NE uptake and 5HT uptake; 5HT vs NE, listed as IV) |
| --- | --- | --- | --- | --- | --- | --- |
| CNCCC(Oc1ccc(C(F)(F)F)cc1)c1ccccc1 (stereo not drawn) [fluoxetine, 3-phenyl-3-(p-trifluoromethyl)phenoxypropyl methylamine] | highly potent antidepressant in humans |  |  |  |  |  |
| CN(C)CCC(Oc1ccc(Cl)cc1)c1ccccc1 (stereo not drawn) [p-chlorophenoxy, N,N-dimethyl 3-phenyl-3-(p-chlorophenoxy)-propylamine] |  | 9.88 | .03 µg/mL | .3 µg/mL | 1.3 |  |
| Cc1ccc(OC(CCN(C)C)c2ccccc2)cc1 (stereo not drawn) [p-tolyloxy, N,N-dimethyl 3-(p-tolyloxy)-3-phenylpropylamine] |  | 5.83 | .4 µg/mL | .015 µg/mL | > 100 |  |
| Cc1ccccc1OC(CCN(C)C)c1ccccc1 (stereo not drawn) [o-tolyloxy, 3-o-tolyloxy-3-phenylpropyl dimethylamine] |  | .5 | 2 µg/mL | .35 µg/mL | 0.8 | selective NE uptake inhibitors; also recorded: blocks NE preferentially |
| CN(C)CCC(Oc1ccc(C(F)(F)F)cc1)c1ccccc1 (stereo not drawn) [p-trifluoromethylphenyloxy, N,N-dimethyl-3-(p-trifluoromethylphenoxy)-3-phenylpropylamine] |  | 7.19 | .16 µg/mL | 70 µg/mL | > 100 |  |
